From paper PMC9977398, “Next-generation membrane-active glycopeptide antibiotics that also inhibit bacterial cell division” (Chemical Science, 2023)
Converted amounts (≈) assume the structure as drawn. Where two headings read alike, the source gives them in different places.

Tests used:
[1] = tested on: AB 1425 (A. baumannii MTCC 1425); experiment: MIC determination, micro-dilution broth; type: cell-based; conditions: Acinetobacter baumannii, MTCC1425; read-out: Minimum inhibitory concentration, AB 1425
Procedure: (§1) The increase in the carbon content of substituted moieties from six (1) to seven (2 and 3) to ten (5) to twelve (4), increased activity. […]
(§2) Test compound was assayed in a micro -dilution broth format as per the CLSI guideline. The bacterial freeze dried stock samples were stored at -80 °C. About 5 μL of these stocks were added to 3 mL of the respective broth and the culture was grown for 6 h at 37°C with prior to the experiments. This 6 h grown culture was diluted to give effective cell concentration of 10 5 CFU/mL which was then used for determining MIC. Compounds were serially diluted 2 -fold, in sterile millipore water and 50 μL of these serial dilutions were added to the wells of 96 well plate followed by the addition of about 150 μL of bacterial solution. The plates were then incubated for 18-24 h at 37 °C. The O.D. value at 600 nm was recorded using TECAN (Infinite series, M200 pro) Plate Reade r. Each concentration had triplicate values and the whole experiment was done at least twice and the MIC value was determined by taking the average of triplicate O. D. values for each concentration and plotting it against concentration. The data was then subjected to sigmoidal fitting. From the curve the MIC value was determined, as the point where the O. D. was similar to that of control having no bacteria.

AB R674 (A. baumannii) = experiment: MIC determination, micro-dilution broth; type: cell-based; conditions: Acinetobacter baumannii; read-out: Minimum inhibitory concentration, AB R674
Procedure: as §1, §2

[2] = tested on: MRSA, methicillin-resistant S. aureus (ATCC 33591); experiment: MIC determination, micro-dilution broth; type: cell-based; conditions: Staphylococcus aureus; MRSA ATCC 33591; read-out: Minimum inhibitory concentration, MRSA
Procedure: as §1, §2

[3] = tested on: PA R590 (MDR strain of P. aeruginosa); experiment: MIC determination, micro-dilution broth; type: cell-based; conditions: Pseudomonas aeruginosa; read-out: Minimum inhibitory concentration, PA R590
Procedure: as §1, §2

[4] = tested on: VRE 51559 (vancomycin-resistant E. faecium, VanA phenotype, ATCC 51559); experiment: MIC determination, micro-dilution broth; type: cell-based; conditions: Enterococcus; read-out: Minimum inhibitory concentration, VRE 51559
Procedure: as §1, §2

[5] = tested on: VRE 51575 (vancomycin-resistant E. faecalis, VanB phenotype, ATCC 51575); experiment: MIC determination, micro-dilution broth; type: cell-based; conditions: Enterococcus; read-out: Minimum inhibitory concentration, VRE 51575
Procedure: as §1, §2

[6] = tested on: VRSA 1 (vancomycin-resistant S. aureus); experiment: MIC determination, micro-dilution broth; type: cell-based; conditions: Staphylococcus aureus, read-out: Minimum inhibitory concentration, VRSA 1
Procedure: as §1, §2

[7] = tested on: VRSA 12 (vancomycin-resistant S. aureus); experiment: MIC determination, micro-dilution broth; type: cell-based; conditions: Staphylococcus aureus, read-out: Minimum inhibitory concentration, VRSA 12
Procedure: as §1, §2

[8] = tested on: VRSA 4 (vancomycin-resistant S. aureus); experiment: MIC determination, micro-dilution broth; type: cell-based; conditions: Staphylococcus aureus, read-out: Minimum inhibitory concentration, VRSA 4
Procedure: as §1, §2

human erythrocytes = experiment: Haemolysis assay; type: cell-based
Procedure: To select the lead compounds, the toxicity of 1–10 was tested against human erythrocytes as their hemolytic activity (HC50). The HC50 is determined as the concentration at which 50% of the compound treated cells are lysed. […] The HC50 for compounds 6–8 was also greater than 500 μM. […] Based on the in vitro activity and hemolysis studies, VanQbiph (4) from the aryl-substituted compounds and VanQAmC10 (8) from the alkyl-chain substituted compounds were selected for further investigations. […] VanQAmC10 (8) was additionally non-toxic to RAW 264.7 cells up to 40 μM and was therefore taken forward in vivo investigation.[18]
50 μL of serially diluted compound was added into 96 well microtiter plates. Freshly drawn, heparanized human blood was centrifuged down to obtain the erythrocytes and re-suspended to 5 vol % in PBS (pH 7.4). 150 μL of the erythrocyte suspension was added to the serially diluted compounds (from 500 µM to 2 µM). One set without compound and other with 50 μL of 1 vol % solution of Triton X-100 were kept as controls. The plates were incubated at 37 °C for 1 h followed by centrifugation at 3,500 rpm for 5 min. 100 μL of the supernatant from each well were transferred into fresh microtiter plates, and A540 was measured.
% haemolysis = (A - A0)/(Atotal -A0) × 100, where A is the absorbance of the test well, A 0 the absorbance of the negative controls (without compound), and A total the absorbance of 100 % hemolysis wells (with Triton X -100), all at 540 nm. […]

VRE (VanA phenotype) = tested on: VRE (VanA phenotype); set-up: method as in PMID 27663982, PMID 24846441, PMID 14972384; conditions: cited from earlier work

SMILES | MIC [1] | MIC (AB R674 (A. baumannii)) | MIC [2] | MIC [3] | MIC [4] | MIC [5] | MIC [6] | MIC [7] | MIC [8] | HC50 (human erythrocytes; human, 1 h, pH 7.4) | MIC against VRE (VanA phenotype) (VRE (VanA phenotype)) | HC50 (human erythrocytes)
CNC(CC(C)C)C(=O)NC1C(=O)NC(CC(N)=O)C(=O)NC2C(=O)NC3C(=O)NC(C(=O)NC(C(=O)NCCC[N+](C)(C)Cc4ccccc4)c4cc(O)cc(O)c4-c4cc3ccc4O)C(O)c3ccc(c(Cl)c3)Oc3cc2cc(c3OC2OC(CO)C(O)C(O)C2OC2CC(C)(N)C(O)C(C)O2)Oc2ccc(cc2Cl)C1O (stereo not shown) [VanQph (1)] | > 30 µM | 25.5 µM | 1 µM | > 30 µM | > 30 µM | > 30 µM | > 30 µM | > 30 µM | > 30 µM | >500 µM |  | 
CCCCCCCCCCNCCN[C@@]1(C)C[C@H](O[C@H]2[C@H](Oc3c4cc5cc3Oc3ccc(cc3Cl)[C@@H](O)[C@@H](NC(=O)[C@@H](CC(C)C)NC)C(=O)N[C@@H](CC(N)=O)C(=O)N[C@H]5C(=O)N[C@H]3C(=O)N[C@H](C(=O)N[C@H](C(=O)O)c5cc(O)c(CNCP(=O)(O)O)c(O)c5-c5cc3ccc5O)[C@H](O)c3ccc(c(Cl)c3)O4)O[C@H](CO)[C@@H](O)[C@@H]2O)O[C@@H](C)[C@H]1O [telavancin] |  |  |  |  |  |  |  |  |  |  | 4 µM (≈ 7.02 µg/mL) | 
CNC(CC(C)C)C(=O)NC1C(=O)NC(CC(N)=O)C(=O)NC2C(=O)NC3C(=O)NC(C(=O)NC(C(=O)NCCC[N+](C)(C)Cc4ccc(C(F)(F)F)cc4)c4cc(O)cc(O)c4-c4cc3ccc4O)C(O)c3ccc(c(Cl)c3)Oc3cc2cc(c3OC2OC(CO)C(O)C(O)C2OC2CC(C)(N)C(O)C(C)O2)Oc2ccc(cc2Cl)C1O (stereo not shown) [VanQphCF3 (3)] | > 30 µM | 24.6 µM | 1 µM | 24.6 µM | > 30 µM | > 30 µM | > 30 µM | > 30 µM | 15.8 µM | >500 µM |  | 
CN[C@H](CC(C)C)C(=O)N[C@H]1C(=O)N[C@@H](CC(N)=O)C(=O)N[C@H]2C(=O)N[C@H]3C(=O)N[C@H](C(=O)N[C@H](C(=O)O)c4cc(O)cc(O)c4-c4cc3ccc4O)[C@H](O[C@H]3C[C@](C)(N)[C@@H](O)[C@H](C)O3)c3ccc(c(Cl)c3)Oc3cc2cc(c3O[C@@H]2O[C@H](CO)[C@@H](O)[C@H](O)[C@H]2O[C@H]2C[C@](C)(NCc3ccc(-c4ccc(Cl)cc4)cc3)[C@@H](O)[C@H](C)O2)Oc2ccc(cc2Cl)[C@H]1O [oritavancin] |  |  |  |  |  |  |  |  |  |  | 0.14 µM (≈ 0.251 µg/mL) | 
CCCCCCCCCCCCCCNC(=O)C[N+](C)(C)CCCNC(=O)C1NC(=O)C2NC(=O)C(NC(=O)C3NC(=O)C(CC(N)=O)NC(=O)C(NC(=O)C(CC(C)C)NC)C(O)c4ccc(c(Cl)c4)Oc4cc3cc(c4OC3OC(CO)C(O)C(O)C3OC3CC(C)(N)C(O)C(C)O3)Oc3ccc(cc3Cl)C2O)c2ccc(O)c(c2)-c2c(O)cc(O)cc21 (stereo not shown) [VanQAmC14 (10)] | 6.3 µM | 12.5 µM | 6.25 µM | 6.3 µM | 1.5 µM | 3.1 µM | 3 µM | 3 µM | 1.5 µM | 150 µM |  | caused hemolysis
CNC(CC(C)C)C(=O)NC1C(=O)NC(CC(N)=O)C(=O)NC2C(=O)NC3C(=O)NC(C(=O)NC(C(=O)NCCC[N+](C)(C)Cc4cccc5ccccc45)c4cc(O)cc(O)c4-c4cc3ccc4O)C(O)c3ccc(c(Cl)c3)Oc3cc2cc(c3OC2OC(CO)C(O)C(O)C2OC2CC(C)(N)C(O)C(C)O2)Oc2ccc(cc2Cl)C1O (stereo not shown) [VanQnaph (5)] | > 30 µM | 24.8 µM | 1 µM | > 30 µM | 25 µM | 25 µM | > 30 µM | > 30 µM | 3.9 µM | >500 µM |  | 
